Where two headings read alike, the source gives them in different places.
How the values were obtained:
[1] = Dimer formation of dye by UV spectrum on thin glass slide; format: physicochemical
[2] = Literature spectral properties of prior art fluorescent dyes; format: physicochemical
[3] = Absorptive and emissive wavelength maxima and fluorescence of the compounds of Examples C to I; format: physicochemical; conditions: for Maximum absorptive wavelength / Maximum emissive wavelength: measured in methanol; for Fluorescence (in words): qualitative, methanol where stated
[4] = Relative fluorescence of boron-rigidized vs unrigidized dye in methanol (FIG. 2); format: physicochemical; conditions: excited at 348 nm, vs bis-benzoxazolylmethene hydrochloride
Source text: The present inventors have determined that the rigidization of the basic monomethine cyanine structure increase the quantum efficiency of the dye molecules as much as 5 to 20 times. Thus, the boron-rigidized dyes of the present invention are unusually fluorescent compared with nonrigidized cyanine dye molecules. The present invention thus provides a method for increasing the fluorescence of dyes by rigidizing monomethine cyanine compounds with a boron bridge. Rigidization increase the planarity of the compound, and the fluorescence intensity.

[5] = Relative fluorescence intensities of the compounds of Examples A and B in a variety of solvents (Table 4); format: physicochemical
Source text: See M. T. Ramos et al., Heterocycles, Vol. 29, p. 165 (1989).

[6] = Absorption/emission spectra and molar extinction coefficients of the compounds of Examples A and B in solvents (Table 3); format: physicochemical; conditions: for Shape of emission spectrum relative to absorption spectrum: FIG. 3 and FIG. 4; for Stokes shift: solvents of Table 3
Source text: (§1) The observed absorption maxima, molar extinction coefficients, emission maxima and qualitative solubility data for the boron-rigidized complexes of Examples A and B are provided in Table 3.

[7] = Resistance to photodegradation (500 watt mercury vapor lamp; optical density monitored); format: physicochemical; conditions: for Red shift at the maximum wavelength / Resistance to photofading compared with the Coumarin dyes: dichloromethane; for Photofading rate compared with the corresponding Coumarin compound: methanol, 500 watt mercury vapor lamp
Source text: The resistance to photodegradation of the compounds of Examples A and B in methanol and dichloromethane was also investigated and was compared with photofading rates of certain Coumarin dyes. A degassed solution of each dye in a quartz cuvette was illuminated with a 500 watt mercury vapor lamp from a distance of 4 inches. The solution optical density at maximum wavelength was monitored as a function of time.

[8] = Qualitative solubility of the compounds of Examples A and B (Table 3); format: physicochemical; conditions: applies to either dye compound
Source text: as §1

[9] = cited from earlier work; for RI (relative intensity): 1.00 = intensity of the dye in methanol
[10] = cited from earlier work

In the case of O=C(O)CC1=C2Sc3cc(S(=O)(=O)O)ccc3N2[B-](F)(F)[n+]2c1sc1cc(S(=O)(=O)O)ccc12, the “Dimer by UV spectrum” value ([1]; HMPA) is reported as “absence of dimer”.

With 7-amino-4-methylcoumarin acetate the “Fluorescence capacity (extinction coefficient x quantum yield) relative to the present inventions' compounds” value [2] was “approximately one-quarter”.

With N#CC1=C2C=CC=CN2[B-](F)(F)[n+]2ccccc21 [Example G] the Maximum absorptive wavelength [3] was 432 nm, the Maximum emissive wavelength [3] was 460 nm and the “Fluorescence (in words)” value [3] was “very fluorescent”.

With F[B-]1(F)N2C(=Cc3oc4ccccc4[n+]31)Oc1ccccc12 [Example B, Bis-benzoxazolylmethene Borondifluoride] the “Quantum yield compared with the unrigidized dye” value [4] was “several fold greater than the unrigidized dye”, the Relative fluorescence intensity ([5]; Acetonitrile) was 1.39 and the Relative fluorescence intensity ([5]; Chloroform) was 1.27. It also gave a Relative fluorescence intensity ([5]; Ethanol) of 1.33, a Relative fluorescence intensity ([5]; Ethyl Acetate) of 1.20 and a Relative fluorescence intensity ([5]; Methanol) of 1.35. For the same compound, the Relative fluorescence intensity ([5]; Toluene) was 1.42, the “Logarithm of the Extinction coefficient” value ([6]; Acetonitrile) was 4.72 M^-1 cm^-1 and the Max. absorption wavelength ([6]; Acetonitrile) was 358 nm. For the same compound, the Max. emission wavelength ([6]; Acetonitrile) was 385 nm, the “Logarithm of the Extinction coefficient” value ([6]; Chloroform) was 4.72 M^-1 cm^-1 and the Max. absorption wavelength ([6]; Chloroform) was 360 nm. The Max. emission wavelength ([6]; Chloroform) was 386 nm, the Max. absorption wavelength ([6]; Ethanol) was 358 nm and the Max. emission wavelength ([6]; Ethanol) was 386 nm. For the same compound, the “Logarithm of the Extinction coefficient” value ([6]; Ethyl Acetate) was 4.74 M^-1 cm^-1, the Max. absorption wavelength ([6]; Ethyl Acetate) was 358 nm and the Max. emission wavelength ([6]; Ethyl Acetate) was 383 nm. The “Shape of emission spectrum relative to absorption spectrum” value [6] was “appears to be much broader”, the Max. absorption wavelength ([6]; Methanol) was 358 nm and the Max. emission wavelength ([6]; Methanol) was 385 nm. For the same compound, the “Logarithm of the Extinction coefficient” value ([6]; Toluene) was 4.74 M^-1 cm^-1, the Max. absorption wavelength ([6]; Toluene) was 360 nm and the Max. emission wavelength ([6]; Toluene) was 392 nm. For the same compound, the Stokes shift [6] was 28 nm, the “Red shift at the maximum wavelength” value [7] was “approximately 12 nm” and the “Resistance to photofading compared with the Coumarin dyes” value [7] was “more resistant to photofading than the Coumarin dyes”. The “Photofading rate compared with the corresponding Coumarin compound” value [7] was “faded at a similar rate”, the “Solubility data (qualitative)” value ([8]; Acetonitrile) was “sol” and the “Solubility data (qualitative)” value ([8]; Chloroform) was “sol”. For the same compound, the “Solubility data (qualitative)” value ([8]; Ethanol) was “sparingly”, the “Solubility data (qualitative)” value ([8]; Ethyl Acetate) was “sol” and the “Solubility data (qualitative)” value ([8]; Methanol) was “sparingly”. For the same compound, the “Solubility data (qualitative)” value ([8]; Toluene) was “sol”.

In the case of CC1=CC(C)=[N+]2C1=Cc1c(C)c(S(=O)(=O)O)c(C)n1[B-]2(F)F [Bodipy-sulfonate, 4-Sulfonato-3,3'5,5'-Tetramethyl-2,2'-Pyrromethene-1,1'-Borondifluoride Complex], the “RI (relative intensity)” value ([9]; Acetonitrile) is given as 0.69, the Extinction coefficient ([9]; Acetonitrile) is given as 58.9 cm⁻¹ mM⁻¹ and the Max. absorption wavelength ([9]; Acetonitrile) is given as 504 nm. For the same compound, the Max. emission wavelength ([9]; Acetonitrile) was 514 nm, the “RI (relative intensity)” value ([9]; Dioxane) was 0.64 and the Extinction coefficient ([9]; Dioxane) was 52.7 cm⁻¹ mM⁻¹. The Max. absorption wavelength ([9]; Dioxane) was 506 nm, the Max. emission wavelength ([9]; Dioxane) was 518 nm and the “RI (relative intensity)” value ([9]; Methanol) was 1.00. For the same compound, the Extinction coefficient ([9]; Methanol) was 57.7 cm⁻¹ mM⁻¹, the Max. absorption wavelength ([9]; Methanol) was 500 nm and the Max. emission wavelength ([9]; Methanol) was 515 nm. For the same compound, the “RI (relative intensity)” value ([9]; Water) was 0.67, the Extinction coefficient ([9]; Water) was 39.7 cm⁻¹ mM⁻¹ and the Max. absorption wavelength ([9]; Water) was 494 nm. The Max. emission wavelength ([9]; Water) was 509 nm.

For F[B-]1(F)N2C(=Cc3ccc4ccccc4[n+]31)C=Cc1ccccc12 [Example H, Bis-Quinolinemethene Borondifluoride], the Maximum absorptive wavelength [3] was 512 nm, the Maximum emissive wavelength [3] was 518 nm and the “Fluorescence (in words)” value [3] was “intense green fluorescence”.

For O=C(Cc1ccc2c(c1)N1C(=Cc3oc4ccc(CC(=O)ON5C(=O)CCC5=O)cc4[n+]3[B-]1(F)F)O2)ON1C(=O)CCC1=O [Blue 1-OSu, disuccinimidyl benzoxazolylmethene borondifluoride complex], the “Dimer by UV spectrum” value ([1]; DMF reaction mixture) was “presence of dimer”.

In the case of O=C(O)Cc1ccc2c(c1)N1C(=Cc3oc4ccc(CC(=O)O)cc4[n+]3[B-]1(F)F)O2 [Example C, Bis-carboxymethyl Benzoxazolylmethene Borondifluoride], the Maximum absorptive wavelength [3] is reported as 362 nm, the Maximum emissive wavelength [3] is reported as 386 nm and the “Fluorescence (in words)” value [3] is reported as “highly fluorescent”.

With F[B-]1(F)N2C=CC=CC2=Cc2sc3ccccc3[n+]21 [Example F, Benzothiazolyl Pyridylmonomethine Borondifluoride] the Maximum absorptive wavelength [3] was 430 nm, the Maximum emissive wavelength [3] was 476 nm and the “Fluorescence (in words)” value [3] was “high fluorescence”.

In the case of F[B-]1(F)N2C(=Cc3sc4ccccc4[n+]31)Oc1ccccc12 [Example D], the Maximum absorptive wavelength [3] is reported as 388 nm, the Maximum emissive wavelength [3] is reported as 414 nm and the “Fluorescence (in words)” value [3] is reported as “highly fluorescent”.

With CC(=O)C1=C2Sc3ccccc3N2[B-](F)(F)[n+]2c1sc1ccccc12 [Example E] the Maximum absorptive wavelength [3] was 416 nm and the “Fluorescence (in words)” value [3] was “less fluorescent than the base benzothiazole chromophore”.

F[B-]1(F)N2C(=Cc3sc4ccccc4[n+]31)Sc1ccccc12 [Example A, Bis-benzothiazolylmethene Borondifluoride] showed a Relative fluorescence intensity ([5]; Acetonitrile) of 0.89, a Relative fluorescence intensity ([5]; Chloroform) of 0.91 and a Relative fluorescence intensity ([5]; Ethyl Acetate) of 0.97. The Relative fluorescence intensity ([5]; Methanol) was 0.89, the Relative fluorescence intensity ([5]; Toluene) was 0.81 and the “Logarithm of the Extinction coefficient” value ([6]; Acetonitrile) was 4.97 M^-1 cm^-1. The Max. absorption wavelength ([6]; Acetonitrile) was 418 nm, the Max. emission wavelength ([6]; Acetonitrile) was 423 nm and the “Logarithm of the Extinction coefficient” value ([6]; Chloroform) was 4.97 M^-1 cm^-1. For the same compound, the Max. absorption wavelength ([6]; Chloroform) was 420 nm, the Max. emission wavelength ([6]; Chloroform) was 425 nm and the Max. absorption wavelength ([6]; Ethanol) was 418 nm. For the same compound, the Max. emission wavelength ([6]; Ethanol) was 423 nm, the “Logarithm of the Extinction coefficient” value ([6]; Ethyl Acetate) was 4.98 M^-1 cm^-1 and the Max. absorption wavelength ([6]; Ethyl Acetate) was 418 nm. The Max. emission wavelength ([6]; Ethyl Acetate) was 423 nm, the “Shape of emission spectrum relative to absorption spectrum” value [6] was “mirrors its absorption spectrum” and the Max. absorption wavelength ([6]; Methanol) was 418 nm. The Max. emission wavelength ([6]; Methanol) was 422 nm, the “Logarithm of the Extinction coefficient” value ([6]; Toluene) was 4.95 M^-1 cm^-1 and the Max. absorption wavelength ([6]; Toluene) was 420 nm. For the same compound, the Max. emission wavelength ([6]; Toluene) was 427 nm, the Stokes shift [6] was 5-7 nm and the “Red shift at the maximum wavelength” value [7] was “approximately 12 nm”. For the same compound, the “Resistance to photofading compared with the Coumarin dyes” value [7] was “more resistant to photofading than the Coumarin dyes”, the “Photofading rate compared with the corresponding Coumarin compound” value [7] was “faded somewhat faster” and the “Solubility data (qualitative)” value ([8]; Acetonitrile) was “sol”. For the same compound, the “Solubility data (qualitative)” value ([8]; Chloroform) was “sol”, the “Solubility data (qualitative)” value ([8]; Ethanol) was “sparingly” and the “Solubility data (qualitative)” value ([8]; Ethyl Acetate) was “sol”. For the same compound, the “Solubility data (qualitative)” value ([8]; Methanol) was “sparingly” and the “Solubility data (qualitative)” value ([8]; Toluene) was “sol”.

In the case of CC1=CC(C)=[N+]2C1=Cc1c(C)cc(C)n1[B-]2(F)F [Bodipy, 3,3',5,5'-tetramethyl-2,2'-pyrromethene-1,1'-boron-difluoride], the Maximum absorptive wavelength ([10]; aqueous media) is listed as 500 nm, the Maximum emissive wavelength ([10]; aqueous media) is listed as 508 nm and the Emission maximum ([10]; solvent not stated) is listed as 508 nm. For the same compound, the “RI (relative intensity)” value ([9]; Acetonitrile) was 0.87, the Extinction coefficient ([9]; Acetonitrile) was 86.7 cm⁻¹ mM⁻¹ and the Max. absorption wavelength ([9]; Acetonitrile) was 501 nm. For the same compound, the Max. emission wavelength ([9]; Acetonitrile) was 508 nm, the “RI (relative intensity)” value ([9]; Dioxane) was 0.63 and the Extinction coefficient ([9]; Dioxane) was 80.0 cm⁻¹ mM⁻¹. For the same compound, the Max. absorption wavelength ([9]; Dioxane) was 505 nm, the Max. emission wavelength ([9]; Dioxane) was 512 nm and the “RI (relative intensity)” value ([9]; Methanol) was 1.00. The Extinction coefficient ([9]; Methanol) was 85.3 cm⁻¹ mM⁻¹, the Max. absorption wavelength ([9]; Methanol) was 501 nm and the Max. emission wavelength ([9]; Methanol) was 509 nm. The “RI (relative intensity)” value ([9]; Water) was 0.48, the Max. absorption wavelength ([9]; Water) was 500 nm and the Max. emission wavelength ([9]; Water) was 508 nm.

In the case of F[B-]1(F)N2C(=Cc3ccc4ccccc4[n+]31)Sc1ccccc12 [Example I, 2(2'-Benzothiazolylmethene)Quinoline Borondifluoride], the Maximum absorptive wavelength [3] is reported as 480 nm, the Maximum emissive wavelength [3] is reported as 492 nm and the “Fluorescence (in words)” value [3] is reported as “green fluorescence”.

Source: US5852191A, “Rigidized monomethine cyanines” (Carnegie Mellon University, priority 1995, dated 1998)
